{"source": "patent US20240350402A1", "about": "“TOPICAL DRUG TREATMENT TO PREVENT OR REDUCE CORNEAL SCARRING” (The Cleveland Clinic Foundation, priority 2021, published 2024)", "system": "rabbit corneas after alkali burn injury", "experiment": "Alkali burn model: slit lamp opacity area and intensity (ImageJ)", "type": "in vivo", "conditions": "alkali burn 1N NaOH; topical six times per day, one month; 0.8 mg/ml losartan, 1% prednisolone acetate", "protocol": "All animal treatments and care were approved by the Institutional Animal Care and Use Committee (IACUC) at the Cleveland Clinic Foundation (Cleveland, OH, USA) and the Animal Care and Use Review Office of the Department of the Army (Fort Detrick, MD). All rabbits were treated in accordance with the tenets of the ARVO Statement for the Use of Animals in Ophthalmic and Vision Research. Sixteen 10- to 15-week-old female New Zealand White rabbits weighing 2.5 to 3.0 kg each were included in this example. […]\nAt one month after sodium hydroxide exposure and treatments, with the rabbits under ketamine-xylazine general anesthesia, the eyes were dilated with two drops of 1% tropicamide (Akom Co., Lake Forest, IL) for thirty minutes. […] For each study eye, the total area of opacity was determined by outlining the opacity with the freehand selection tool using ImageJ 1.53a analysis software calibrated to mm^2. The “raw internal density” in pixels for the opacified area in each cornea was also determined using ImageJ. […]"}
{"smiles": "CCCCc1nc(Cl)c(CO)n1Cc1ccc(-c2ccccc2-c2nn[nH]n2)cc1", "note": "[losartan]", "values": [{"measurement": "total opacity intensity in pixels (ImageJ) vs BSS vehicle group", "result": "significantly different"}]}
